Measurements taken from patent US8415383B2, “Substituted benzamidines as antibacterial agents” (Biota Scientific Management Pty Ltd, priority 2007, dated 2013).
In brackets after ≈: the same amount, converted by molar mass. Where two headings read alike, the source gives them in different places.

How the values were obtained:
[1] = tested on: Staphylococcus aureus ATCC29213; assay: Minimal Inhibitory Concentration (MIC) testing, broth microdilution or agar dilution (CLSI); format: cell-based
Method: Minimal Inhibitory Concentration (MIC) Testing
Compounds of this invention were tested for antimicrobial activity by susceptibility testing in liquid or on solid media. MICs for compounds against each strain were determined by the broth microdilution or agar dilution method according to the guidelines of the Clinical Laboratories and Standards Institute, formerly the National Committee for Clinical Laboratory Standards (Clinical Laboratories and Standards Institute. Methods for Dilution Antimicrobial Susceptibility Tests for Bacteria That Grow Aerobically; Approved Standard—Seventh Edition. Document M7-A7. CLSI, Wayne, Pa., 2006; Clinical Laboratories and Standards Institute.
Activities were scored as ‘A’ if the MIC was less than or equal to 0.125 micrograms/ml, ‘B’ if the MIC was 0.25 to 4 micrograms/ml and ‘C’ if the MIC was greater than 4 micrograms/ml.

[2] = Staphylococcus aureus ATCC29213, MIC scored as class, read-out: Staphylococcus aureus MICs Activity

| Compound | MIC [1, 2] | melting point | MIC ([1]; Staphylococcus aureus, ATCC29213, read-out: Staphylococcus aureus MICs Activity) |
| --- | --- | --- | --- |
| N/C(=N\O)c1c(F)ccc(OCc2nc3cc(Cl)ccc3s2)c1F [Example 1, 3-[(5-Chloro-1,3-benzothiazol-2-yl)methoxy]-2,6-difluoro-N′-hydroxybenzenecarboximidamide] | > 4 µg/mL | 169 to 170 °C | – |
| CO/N=C(\N)c1c(F)ccc(OCc2nc3cc(Cl)ccc3s2)c1F [Example 2, 3-[(5-Chloro-1,3-benzothiazol-2-yl)methoxy]-2,6-difluoro-N′-methoxybenzenecarboximidamide] | 0.25 to 4 µg/mL (≈ 0.651 to 10.4 µM) | – | – |
| N=C(N)c1c(F)ccc(OCc2nc3cc(Cl)ccc3s2)c1F [Example 3, 3-[(5-Chloro-1,3-benzothiazol-2-yl)methoxy]-2,6-difluorobenzenecarboximidamide] | > 4 µg/mL | – | – |
| O=c1[nH]c(-c2c(F)ccc(OCc3nc(-c4ccc(Cl)cc4)no3)c2F)no1 [Example 4, 3-{3-[3-(4-Chloro-phenyl)-[1,2,4]oxadiazol-5-ylmethoxy]-2,6-difluorophenyl}-4H-[1,2,4]oxadiazol-5-one] | – | – | > 4 µg/mL |
| N/C(=N\O)c1c(F)ccc(OCc2nc(-c3ccc(Cl)cc3)ns2)c1F [Example 5, 3-[3-(4-Chlorophenyl)-[1,2,4]thiadiazol-5-ylmethoxy]-2,6-difluoro-N-hydroxybenzamidine] | < 0.125 µg/mL | – | – |
| CC(=O)O/N=C(\N)c1c(F)ccc(OCc2nc(-c3ccc(Cl)cc3)ns2)c1F [Example 6] | 0.25 to 4 µg/mL (≈ 0.57 to 9.11 µM) | – | – |
| N=C(N)c1c(F)ccc(OCc2nc(-c3ccc(Cl)cc3)ns2)c1F [Example 7, 3-((3-(4-chlorophenyl)-1,2,4-thiadiazol-5-yl)methoxy)-2,6-difluorobenzimidamide] | > 4 µg/mL | – | – |
| CS(=O)(=O)/N=C(\N)c1c(F)ccc(OCc2nc(-c3ccc(Cl)cc3)ns2)c1F [Example 8] | > 4 µg/mL | – | – |
| COc1ncc(-c2csc(COc3ccc(F)c(/C(N)=N/O)c3F)n2)s1 [Example 9, 2,6-difluoro-N′-hydroxy-3-((2′-methoxy-4,5′-bithiazol-2-yl)methoxy) benzimidamide] | < 0.125 µg/mL | – | – |
